Source: ChEMBL document CHEMBL1132758, “Synthesis and estrogenic activities of novel 7-thiosubstituted estratriene derivatives” (Bioorg Med Chem Lett, 2000)

Experiments:
Estrogen receptor beta [1] = target: T1, Estrogen receptor beta (Homo sapiens, UniProt Q92731)
Estrogen receptor [2] = target: T2, Estrogen receptor (Homo sapiens, UniProt P03372)
T2 sequence (P03372 whole entry): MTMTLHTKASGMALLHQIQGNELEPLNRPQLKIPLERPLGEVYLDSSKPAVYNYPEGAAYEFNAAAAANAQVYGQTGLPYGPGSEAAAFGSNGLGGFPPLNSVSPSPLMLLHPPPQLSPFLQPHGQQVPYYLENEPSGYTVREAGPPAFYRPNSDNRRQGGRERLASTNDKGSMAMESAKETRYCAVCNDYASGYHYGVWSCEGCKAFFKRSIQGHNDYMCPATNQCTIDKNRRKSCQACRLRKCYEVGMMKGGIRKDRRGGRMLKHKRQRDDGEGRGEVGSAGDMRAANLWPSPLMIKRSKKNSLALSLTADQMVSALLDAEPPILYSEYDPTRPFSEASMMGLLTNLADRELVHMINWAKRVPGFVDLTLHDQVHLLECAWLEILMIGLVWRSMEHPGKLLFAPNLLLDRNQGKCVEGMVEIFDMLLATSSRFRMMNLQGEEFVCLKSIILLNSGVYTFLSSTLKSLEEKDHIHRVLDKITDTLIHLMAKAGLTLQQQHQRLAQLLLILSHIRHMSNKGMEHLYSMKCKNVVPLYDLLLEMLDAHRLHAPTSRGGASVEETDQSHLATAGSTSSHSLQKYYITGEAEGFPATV

Estrogen receptor [3] = target: T2, Estrogen receptor; remark: listed apart in the source
Description: Agonist effect on transcriptional activation in MCF-7 cells expressing estrogen receptor alpha

Estrogen receptor [4] = target: T2, Estrogen receptor; remark: listed apart in the source
Description: Antagonist effect on transcriptional activation in MCF-7 cells expressing estrogen receptor alpha

Estrogen receptor [5] = target: T2, Estrogen receptor; details: mcf7
Estrogen receptor [6] = target: T2, Estrogen receptor; details: mcf7; remark: listed apart in the source
Estrogen receptor beta [7] = target: T1, Estrogen receptor beta; assay: Displacement of [3H]17-beta-estradiol from human Estrogen receptor beta; Not active means no effect at < 1000 nM

T1 sequence (Q92731 whole entry): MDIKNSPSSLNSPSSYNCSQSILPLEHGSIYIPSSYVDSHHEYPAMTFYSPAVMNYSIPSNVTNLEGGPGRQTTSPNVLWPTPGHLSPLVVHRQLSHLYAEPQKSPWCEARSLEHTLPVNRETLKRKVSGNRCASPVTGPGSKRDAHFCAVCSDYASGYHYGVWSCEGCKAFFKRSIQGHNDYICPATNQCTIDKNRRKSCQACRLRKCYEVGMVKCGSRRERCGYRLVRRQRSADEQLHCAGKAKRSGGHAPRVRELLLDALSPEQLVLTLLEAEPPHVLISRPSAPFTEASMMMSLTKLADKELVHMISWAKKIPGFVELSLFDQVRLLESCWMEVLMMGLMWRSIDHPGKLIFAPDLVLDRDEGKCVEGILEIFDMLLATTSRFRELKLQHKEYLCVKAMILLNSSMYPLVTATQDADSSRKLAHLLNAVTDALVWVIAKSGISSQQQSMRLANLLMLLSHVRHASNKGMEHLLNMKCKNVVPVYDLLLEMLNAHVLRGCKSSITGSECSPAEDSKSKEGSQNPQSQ

Row | Structure (SMILES) | IC50 (Estrogen receptor beta [1]) [nM] | IC50 (Estrogen receptor [2]) [nM] | EC50 (Estrogen receptor [3]) [nM] | IC50 (Estrogen receptor [4]) [nM] | IC50 (Estrogen receptor [5]) | EC50 (Estrogen receptor [6]) | IC50 (Estrogen receptor beta [7])
1 | CCCCN(C)C(=O)CCCCCCCCCCS[C@H]1[C@@H]2[C@H](CC[C@]3(C)[C@@H](O)CC[C@@H]23)c2ccc(O)cc2[C@H]1O | 32 | 32 | 40 | 316 |  |  | 
2 | C[C@]12CC[C@@H]3c4ccc(O)cc4C(O)[C@@H](Sc4ccc(Br)cc4)[C@H]3[C@@H]1CC[C@@H]2O (some centres not stated) | 63 | 397 | 7 |  | Not Active |  | 
3 | CCCCN(C)C(=O)CCCCCCCCCCS[C@@H]1Cc2cc(O)ccc2[C@H]2CC[C@]3(C)[C@@H](O)CC[C@H]3[C@@H]21 | 9 | 9 |  | 3.5 |  | Not Active | 
4 | CC(=O)O[C@H]1CC[C@H]2[C@@H]3[C@H](Sc4ccc(Br)cc4)C(=O)c4cc(O)ccc4[C@H]3CC[C@]12C |  |  |  |  | Not Active |  | Not Active
5 | CN(C)C(=O)/C=C/c1ccc(S[C@@H]2Cc3cc(O)ccc3[C@H]3CC[C@]4(C)[C@@H](O)CC[C@H]4[C@@H]32)cc1 | 59 | 94 | 173 |  | Not Active |  | 
6 | COc1ccc2c(c1)C[C@@H](Sc1ccc(OCCN3CCCCC3)cc1)[C@@H]1[C@@H]2CC[C@]2(C)[C@@H](O)CC[C@@H]12 |  |  |  |  |  |  | Not Active
7 | C[C@]12CC[C@@H]3c4ccc(O)cc4C[C@@H](Sc4ccc(/C=C/C(=O)O)cc4)[C@H]3[C@@H]1CC[C@@H]2O | 21 | 46 | 13 |  | Not Active |  | 
8 | CCCCN(C)C(=O)CCCCCCCCCCS[C@@H]1C(=O)c2cc(O)ccc2[C@H]2CC[C@]3(C)[C@@H](O)CC[C@H]3[C@H]12 | 37 | 33 | 28 | 519 |  |  | 
